Experimental data published in patent US9328163B2, “Post-translationally modified neurotrophin antibodies” (INSTITUT PASTEUR, priority 2006, dated 2016).

Tests used:
motor neurons = assay: Purified motor neuron cultures, motor neuron survival by direct counting; type: cell-based, rat; conditions: for induction of motor neuron death: BSA 100 ng/mL, FGF-1 or FGF-2 10 ng/mL previously treated with peroxynitrite 1 mM
Description: Media and sera were purchased from Gibco-Invitrogen. Motor neuron cultures were prepared from embryonic day 15 (E15) rat spinal cord by a combination of metrizamide gradient centrifugation and immunopanning with a monoclonal antibody directed against rat p 75^NTR (mouse mAb Ig192) as previously described. Motor neurons were plated at a density of 350 cells/cm^2 on 4 well multidishes (Nunclon) precoated with polyornithine-laminin. Cultures were maintained in Neurobasal™ medium supplemented with 2% horse serum, […] L-glutamate, 25 μM 2-mercaptoethanol, 0.5 mM L-glutamine, and 2% B-27 supplement (Gibco-Invitrogen). Motor neuron survival was maintained by the addition of GDNF (1 ng/mL; Sigma) to the culture media. Motor neuron death induced by trophic factor deprivation (NONE, without GDNF) was determined in all experiments as a control, and never was greater than 50%. Treatments with the different reagents were performed 3 hours after motor neuron plating. Motor neuron survival was assessed after 48 hours by direct counting of all cells displaying intact neurites longer than 4-cell bodies in diameter, in a prefixed area of the dish.
(§1) Treatment with antisense oligonucleotides to down-regulate p75^NTR expression was performed as described previously. Briefly, HPLC-purified phosphorothioate antisense and missense oligonucleotides (5 μM; Integrated DNA Technologies) were added to the cell suspension of purified motor neurons and repeatedly pipetted before seeding. The oligonucleotides were present the whole time of culture. To determine the efficiency of uptake, cultures were incubated with p75^NTR antisense oligonucleotides with a 5′ 56-FAM fluorescent label. Cells were transferred to the heated stage (37° C.) of a Zeiss LSM510 confocal microscope with constant 5% CO2. Fluorescence was imaged with a 63× oil immersion objective. Uptake efficiency was >96% in all experiments. Sequences used were: p75^NTR antisense, 5′-ACCTGCCCTCCTCATTGCA-3′ (SEQ ID NO: 5) and p 75^NTR missense, 5′-CTCCCACTCGTCATTCGAC-3′ (SEQ ID NO: 6).

NGF = assay: Tyrosine nitration and oligomerization of NGF by peroxynitrite (SDS-PAGE, Western blot anti-nitrotyrosine); type: biochemical, mouse; conditions: urate 20 to 1000 μM; peroxynitrite 1 mM
Description: Peroxynitrite concentration was determined spectrophotometrically at 302 nm (ε=1,670 M^−1 cm^−1). Diluted stock solutions were freshly prepared in 0.01 M NaOH. The reactions of NGF (Harlan; Indianapolis, USA) with different concentrations of peroxynitrite (0.25 mM to 2 mM) was performed at a protein concentration of 0.2 mg/mL to 1.0 mg/mL obtaining similar results. The reaction was performed in 50 mM sodium phosphate buffer, pH 7.4, containing 20 mM sodium bicarbonate. NGF was subjected to 10 bolus addition of peroxynitrite (1 μL each) to reach the desired final concentration of peroxynitrite. One bolus of peroxynitrite stock solution was rapidly added on the top of the test tube and mixed by vortexing for 3 sec. The procedure was repeated 10 times. To exclude a potential non-specific effect of peroxynitrite treatment because of pH changes or contaminants, control experiments were performed using diluted NaOH or decomposed peroxynitrite (reverse order addition, ROA). Treatment of bovine serum albumin (Sigma), FGF-1 (Sigma) and FGF-2 (R&D Systems) with peroxynitrite was performed as described above at a concentration of 0.2 mg/mL.
SDS-PAGE was performed in 15% polyacrylamide minigels under reducing conditions. Samples were boiled for 5 min in LaemLi buffer before running. Proteins were visualized by Coomassie Blue or Silver staining. […]

purified motor neurons = assay: Uptake of fluorescently labelled antisense oligonucleotides (confocal microscopy); type: cell-based, rat; conditions: antisense oligonucleotides with 5′ 56-FAM fluorescent label; all experiments
Description: as §1

[1] = test system: Dorsal root ganglia explants; assay: Neurite outgrowth from dorsal root ganglia explants (GAP-43 immunofluorescence); type: cell-based; conditions: 100 ng/mL; 24 hours; E15 rat embryo ganglia
Description: Dorsal root ganglia explants from E15 rat embryos (that express both TrkA and p75^NTR) were cultured in Neurobasal media in the absence of trophic factors (NONE) or in the presence of NGF (100 ng/mL), NGF treated with peroxynitrite (100 ng/mL; nitroNGF-P) or NGF treated with tetranitromethane (nitroNGF-TNM). After 24 hours cultures were fixed with 4% paraformaldehyde and processed for immunofluorescence against GAP-43.

[2] = cultures maintained with GDNF (1 ng/mL), no exogenous nitric oxide, 48 h

Molecule: Oc1nc(O)c2nc(O)[nH]c2n1 [urate]
- effect on motor neuron loss induced by peroxynitrite-treated NGF (motor neurons; urate 100 nM added to culture, NGF-ONOO^− 100 ng/mL, 48 h): did not prevent motor neuron loss
- effect on apoptotic activity of peroxynitrite-treated NGF (motor neurons; urate 200 μM present during peroxynitrite (1 mM) treatment of NGF, NGF 100 ng/mL, 48 h): abolished the apoptotic effect
- effect on tyrosine nitration and oligomerization of NGF (NGF): prevented tyrosine nitration and oligomerization of NGF in a dose dependent manner

Molecule: peroxynitrite treated-FGF-1: FGF-1 (Sigma) treated with peroxynitrite
- induction of motor neuron death (motor neurons; 48 h): did not induce motor neuron death
- induction of motor neuron death (motor neurons; 48 h, listed as nitro-FGF-1): do not exert any apoptotic effect

Molecule: COC(=O)[C@@H](N)CCCNC(=N)N[N+](=O)[O-] [L-NAME]
- effect on motor neuron loss induced by peroxynitrite-treated NGF (motor neurons; L-NAME 1 mM, NGF-ONOO^− 100 ng/mL, 48 h): prevented

Molecule: antisense: phosphorothioate p75^NTR antisense, 5′-ACCTGCCCTCCTCATTGCA-3′ (SEQ ID NO: 5) (DNA, all phosphorothioate, methylation of C not given here; further chemistry not fully specified)
- effect on motor neuron apoptosis induced by native NGF in the presence of nitric oxide (motor neurons; oligonucleotides 5 μM, NGF 100 ng/mL plus DETA-NONOate 10 μM, 48 h): blocked
- effect on apoptosis induced by peroxynitrite-treated NGF (motor neurons; oligonucleotides 5 μM, NGF-ONOO^− 100 ng/mL, 48 h): completely prevented
- effect on loss of motor neurons induced by NGF-ONOO^− or NGF+NO (motor neurons; oligonucleotides added at plating, NGF-ONOO^− 100 ng/mL or NGF 100 ng/mL plus DETA-NONOate 10 μM, 48 h): completely blocked the loss of motor neurons
- uptake efficiency (purified motor neurons): > 96%

Molecule: peroxynitrite-treated NGF: NGF (Harlan) treated with peroxynitrite; nitrated (Tyr52, Trp99), elutes as dimer, tetramer and octamer
- peroxynitrite concentration at which NGF apoptotic activity reaches a plateau (motor neurons; NGF 10 ng/mL previously treated with indicated peroxynitrite concentrations, 48 h): higher than 0.5 mM
- motor neuron loss (motor neurons; at 1 pg/mL in the presence of nitric oxide (DETA-NONOate 10 μM), 48 h): 33%
- concentration inducing motor neuron death (as low as) (motor neurons; cultures maintained with GDNF (1 ng/mL), no exogenous nitric oxide, survival 48 h after treatment): 1 ng/mL
- increase of potency to induce apoptosis of motor neurons (motor neurons; in the presence of nitric oxide, versus NGF): 10,000 fold
- apoptotic activity relative to unmodified native NGF (motor neurons; through p75^NTR): 10,000 fold
- concentration significantly inducing motor neuron loss (motor neurons; together with nitric oxide (NGF-ONOO^−+NO)): 1 pg/mL
- neurite growth compared to NGF [1]: increased neurite growth

Molecule: COC(=O)CC[C@H](NC(=O)[C@H](CC(=O)OC)NC(=O)OCc1ccccc1)C(=O)N[C@H](C(=O)N[C@@H](CC(=O)OC)C(=O)CF)C(C)C [DEVD-fmk]
- effect on motor neuron loss induced by peroxynitrite-treated NGF (motor neurons; DEVD-fmk 10 μM added every 24 hours, NGF-ONOO^− 100 ng/mL, 48 h): blocked

Molecule: peroxynitrite treated-BSA: bovine serum albumin (Sigma) treated with peroxynitrite
- induction of motor neuron death (motor neurons; 48 h): did not induce motor neuron death

Molecule: peroxynitrite treated-FGF-2: FGF-2 (R&D Systems) treated with peroxynitrite
- induction of motor neuron death (motor neurons; 48 h): did not induce motor neuron death
- induction of motor neuron death (motor neurons; 48 h, listed as nitro-FGF-2): do not exert any apoptotic effect

Molecule: O=C(O)c1ccc(/C2=C3\C=CC(=N3)/C(c3ccc(C(=O)O)cc3)=c3/cc/c4[n]3[Mn]([Cl])[n]3c2ccc3/C(c2ccc(C(=O)O)cc2)=C2/C=CC(=N2)\C=4c2ccc(C(=O)O)cc2)cc1 [MnTBAP]
- effect on motor neuron loss induced by peroxynitrite-treated NGF (motor neurons; MnTBAP 100 μM, NGF-ONOO^− 100 ng/mL, 48 h): prevented

B1: TNM-treated NGF: NGF (Harlan) treated with 40-fold molar excess of tetranitromethane; nitrated at Tyr52 and Tyr79 (protein)
chain: SSTHPVFHMGEFSVCDSVSVWVGDKTTATDIKGKEVTVLAEVNINNSVFRQYFFETKCRASNPVESGCRGIDSKHWNSYCTTTHTFVKALTTDEKQAAWRFIRIDTACVCVLSRKATR
- motor neuron loss (motor neurons; in the absence of nitric oxide, 48 h): 32%
- neurite growth compared to NGF [1]: increased neurite growth

B2: NGF: nerve growth factor, commercially available murine NGF (Harlan), non-nitrated (protein, listed as Mus musculus)
chain: SSTHPVFHMGEFSVCDSVSVWVGDKTTATDIKGKEVTVLAEVNINNSVFRQYFFETKCRASNPVESGCRGIDSKHWNSYCTTTHTFVKALTTDEKQAAWRFIRIDTACVCVLSRKATR
- effect on motor neuron survival (motor neurons; [2]): not sensitive

B3: NGF-ROA: control NGF treated with decomposed peroxynitrite (reverse order addition) (protein, UniProt P01139 122-241, looked up)
Beta-nerve growth factor: SSTHPVFHMGEFSVCDSVSVWVGDKTTATDIKGKEVTVLAEVNINNSVFRQYFFETKCRASNPVESGCRGIDSKHWNSYCTTTHTFVKALTTDEKQAAWRFIRIDTACVCVLSRKATRRG
modifications: Beta-nerve growth factor treated with decomposed peroxynitrite
- effect on motor neuron survival (motor neurons; [2]): did not affect motor neuron survival
- concentration significantly inducing motor neuron loss (motor neurons; in the presence of nitric oxide <50 nM from DETA-NONOate (10 μM), 48 h): higher than 10 ng/mL
